Data on 1 compound can be found in article PMC8706998, “Lipid Nanocarriers-Loaded Nanocomposite as a Suitable Platform to Release Antibacterial and Antioxidant Agents for Immediate Dental Implant Placement Restorative Treatment” (Pharmaceutics, 2021).

The nature of series [1]: Screening of the liquid lipids: visual evaluation of QRC dissolution (5% w/w). To be noted: QRC 5% w/w (5:95). In kind it is physicochemical. Here is the method:
Labrasol®, Capryol PGMC®, Plurol®, Maisine®, Labrafil® M 1944 CS, and PEG-18 G/C were selected as liquid lipids to evaluate their ability to completely dissolve the desired amount of QRC (5% w/w). Briefly, 50 mg of QRC was added to 950 mg of each lipid. Each mixture was then ultrasonicated (Emerson Branson 1200, Branson, Brookfield, USA) for 15 min, allowing QRC powder disaggregation. Then, mixtures were maintained under magnetic stirring (200 rpm) and kept in a silicone thermostatic bath heated up to 60 °C (Heidolph MR3001K, Schwabach, Germany) for 30 min. After cooling at room temperature, samples were evaluated in terms of appearance and clearness.

Series [2] is described as follows: QRC stability after UV irradiation by EPR spectroscopy. In kind it is physicochemical. The method, then:
EPR measurements were carried out on 25 mg of QRC and BioQ-CPX at room temperature using a Bruker ELEXSYS E-500 spectrometer (Bruker, Billerica, MA, USA) operated at 9.8 GHz (X-band), operating at 6 mW microwave power and 0.15 mT modulation amplitude. To evaluate the effects of light exposure in the samples, UV-A/UV-B irradiator alternatively equipped with lamps of 25 W and 50 W (Light-Emitting Diode Philips, Amsterdam, The Netherlands) was used. Preliminarily, the paramagnetic center of QRC (pure drug) before and after 20 min of UV irradiation (50 W) was characterized. Afterwards, to evaluate the BioQ-CPX capability in preserving QRC from light exposure, aliquots of QRC and BioQ-CPX were irradiated by 25 W or 50 W lamps over time. […] UV irradiation was accomplished up to 60 min for all samples and EPR analysis was carried out every 5 min. Signals were normalized to the QRC mass contained in each sample. Data are reported as mean ± SE (n = 3).

As for `O=c1c(O)c(-c2ccc(O)c(O)c2)oc2cc(O)cc(O)c12` [QRC, quercetin], the “Appearance of QRC-liquid lipid mixture” value in series [1] (Capryol PGMC) is recorded as “Opalescent”; in series [1] (Labrafil M 1944 CS), “Opalescent”; in series [1] (Labrasol), “Clear”; in series [1] (Maisine) it was “Opalescent”; in series [1] (PEG-18 G/C) it was “Slightly Opalescent”; in series [1] (Plurol), “Opalescent”. Also, in series [2] (25 W or 50 W lamp, irradiation up to 60 min), the “UV exposure time until Hpp plateau (antioxidant power exhausted)” value was found to be 25 min. Moreover, the “EPR amplitude Hpp normalized to mass” value in series [2] (20 min UV irradiation, 50 W lamp) amounted to 1.018 u.a; in series [2] (not irradiated), 0.054 u.a.
